Consider 2 compounds from patent US9745261B2, “Inhibitors of the MITF molecular pathway” (THE GENERAL HOSPITAL CORPORATION, priority 2013, dated 2017).

One data set concerns A375 cells. Put plainly: A-375 cell cytotoxicity assay (CellTiter-Glo). It counts as cell-based, human. The settings on record: FIG. 13. As for the experimental part:
A375 cells were treated with compounds for 24 hours, and then cell viability was measured using the CellTiter-Glo Assay (Promega), a luciferase-based reagent that measures cellular ATP levels. The compounds were tested at different concentrations to determine IC50 values. Compounds that were active in the primary assay and were not toxic below 30 μM at 24 hours were considered for probe development. Data were normalized against DMSO in Genedata Screener's Assay Analyzer.
A-375 cells were maintained in DMEM (10% FBS, 1% Pen-Strep-Glutamine). Cells were fluid changed every 3 days and/or split upon reaching 90% confluency. For secondary assays, cells were thawed at 2 million cells per Falcon T175 flask. After 3 days, cells were passed to a Corning Triple flask (6-8 million cells) and plated after 3 days in the triple flask.
Day 1 • 1. Plate A-375 cells at 3,000 per well in 30 uL media (phenol red free DMEM/10% Fetal Bovine Serum/Penicillin/Streptomycin/L-Glutamine) • 2. Use Corning white 384-well, square, opaque-bottomed plates (Corning Catalog No. 8867BC)
Day 2 • 3. Pin 100 nL compound/DMSO solution (Cybi Well) into assay plates. (For HTS, required sentinel pinning with the positive control, parthenolide (6 mM)) • 4. Incubate 24 hours at 37° C. in Liconic incubator.
(§1) Day 3 • 5. […] Read on the Perkin-Elmer EnVision plate reader with luminescence (LUM) settings for 0.1 sec per well. […]

For another data set, the system named is CDK2. Put plainly: qPCR assay for CDK2 expression in SK-MEL-5 cells. The settings on record: qPCR. It counts as cell-based, human. As for the experimental part: SK-MEL-5 cells were treated with compounds for 24 hours. Next, cells were lysed with DNase I (Ambion, from Cell to CT Lysis Mix). Lysed cells were delivered to a RT-PCR plate (Ambion, Cells to CT RT Mix) and the plates were then processed for reverse transcription to create cDNA. qPCR was performed by transferring cDNA from the RT-PCR plate to a qPCR plate containing PCR master mix (Roche, Probes Master), FAM Taqman probe/primer set for the target gene (human MITF, Applied Biosystem, 4331182 Hs01117294_m1), VIC Taqman probe/primer set for a house keeping gene (human GAPDH, Applied Biosystems C10228) and water. qPCR plates were cycled using a real-time PCR instrument (Roche, Light Cycler). Using the instrument software, a cycle call was generated when each well enters log phase amplification (Ct). The delta Ct value was determined by subtracting the Ct value of the control gene (GAPDH) from the Ct value of the target gene (MITF) in each well. The delta delta Ct value of each compound treatment was determined by averaging the delta Ct values of the mock well on each plate and subtracting that average from the delta Ct value of each compound well. […]
• 10. […] The RT assay plates are incubated at 37° C. for 1 hour and the reverse transcriptase is inactivated by incubating the plates for 1 minute at 95° C. • 13. cDNA is stored at −80° C. until ready for qPCR analysis […]
In general terms: Quantitative PCR measures a nucleic acid by following its amplification.

For the next data set, the system named is SK-MEL-5 cells. Put plainly: SK-MEL-5 cell cytotoxicity assay (CellTiter-Glo). It counts as cell-based, human. The note with it: FIG. 13. As for the experimental part: SK-MEL-5 cells were treated with compounds for 24 hours, and then cell viability was measured using the CellTiter-Glo Assay (Promega), a luciferase-based reagent that measures cellular ATP levels. The compounds were tested at different concentrations to determine IC50 values. Compounds that were active in the primary assay and toxic below 30 μM at 24 hours were considered for probe development. Data were normalized against DMSO in Genedata Screener's Assay Analyzer.
SK-MEL-5 cells were maintained in DMEM (10% FBS, 1% Pen-Strep-Glutamine). Cells were fluid changed every 3 days and/or split upon reaching 100% confluency. For secondary assays, cells were thawed at 4 million cells per Falcon T175 flask. After 3 days, the cells were fluid changed, after 3 more days cells were passed to a Corning Triple flask (10-15 million cells) and plated after 3 days in the triple flask.
Day 1 • 1. Plate SK-MEL-5 cells at 3,000 per well in 30 uL media (phenol red free DMEM/10% Fetal Bovine Serum/Penicillin/Streptomycin/L-Glutamine) • 2. Use Corning white 384-well, square, opaque-bottomed plates (Corning Catalog No. 8867BC)
Day 2 • 3. Pin 100 nL compound/DMSO solution (Cybi Well) into assay plates. (For HTS, required sentinel pinning with the positive control, parthenolide (6 mM)) • 4. […]
as §1
(ATP-based viability assays read luminescence as a measure of living cells.)

The subject of another data set is MALME-3M cells. Put plainly: MALME-3M cell cytotoxicity assay (CellTiter-Glo). It counts as cell-based, human. The note with it: FIG. 13. As for the experimental part: MALME-3M cells were treated with compounds for 24 hours, and then cell viability was measured using the CellTiter-Glo Assay (Promega), a luciferase-based reagent that measures cellular ATP levels. The compounds were tested at different concentrations to determine IC50 values. Compounds that were active in the primary assay and toxic below 30 μM at 24 hours were considered for probe development. Data were normalized against DMSO in Genedata Screener's Assay Analyzer.
MALME-3M cells were maintained in IMDM (20% FBS, 1% Pen-Strep-Glutamine). Cells were fluid changed every 3 days and/or split upon reaching 100% confluency. For secondary assays, cells were thawed at 6 million cells per Falcon T175 flask. After 3 days, cells were fluid changed, after 3 more days cells were passed to a Corning Triple flask (15-18 million cells) and plated after 3 days in the triple flask.
Day 1 • 1. Plate MALME-3M cells at 3,000 per well in 30 uL media (phenol red free IMDM/10% Fetal Bovine Serum/Penicillin/Streptomycin/L-Glutamine) • 2. Use Corning white 384-well, square, opaque-bottomed plates (Corning Catalog No. 8867BC)
Day 2 • 3. Pin 100 nL compound/DMSO solution (Cybi Well) into assay plates, including the positive control. • 4. Incubate 24 hours at 37° C. in Liconic incubator.
as §1

The subject of data set [1] is MITF and MITF target genes. Put plainly: qPCR of MITF and MITF target genes in human melanoma cell lines and primary melanocytes. The settings on record: 24 h, multiple cell lines. It counts as cell-based. As for the experimental part: (§2) Experiments described in this example were performed using methods as described in Haq et al. (2013). Oncogenic BRAF regulates oxidative metabolism via PGC1α and MITF. Cancer Cell. 2013 Mar. 18; 23(3):302-15.
Effect of ML329 (24 h at indicated concentration) on MITF mRNA and target gene mRNA expression in melanoma cell lines. mRNA was quantified by qPCR.

Data set [2] deals with human melanoma cell lines. Put plainly: Cell viability of human melanoma cell lines (CellTiter-Glo, 48-72 hours). It counts as cell-based. As for the experimental part:
as §2
(§3) Indicated cell line was treated with varying concentrations of ML329 for 48-72 hours. Viability was measured using the CellTiter-Glo reagent (Promega).

Another data set relates to non-melanoma cells. Put plainly: Non-melanoma cell viability (CellTiter-Glo, 48-72 hours). It counts as cell-based. As for the experimental part:
as §2, §3

The subject of another data set is MITF protein. Put plainly: MITF protein by Western immunoblotting in SKMEL-5 cells. It counts as cell-based, human. As for the experimental part: as §2
MITF protein was detected using Western immunoblotting. In parallel, SK-MEL-5 cells treated with ML329 (above) were lysed and MITF mRNA was quantified by qPCR (FIG. 12b).
(A western blot detects proteins with antibodies after separation by electrophoresis.)

Molecules are shown by their SMILES.

As to `Cc1nc2ccccc2n1/N=C/c1ccc([N+](=O)[O-])s1`, in the data set with A375 cells, the “Cell viability, A-375 (MITF-independent), result in words” value was “no impairment of viability”. The “CDK2 expression, result in words” value in the data set with CDK2 is on record as “reduced the expression”. Also, in the data set on SK-MEL-5 cells, the “Cell viability, SK-MEL-5 (MITF-dependent), result in words” value is reported as “specific activity against the MITF-dependent cells”. For the same compound, the “Cell viability, MALME-3M (MITF-dependent), result in words” value with MALME-3M cells is “specific activity against the MITF-dependent cells”.
As to `NS(=O)(=O)c1ccc(NC2=CC(=O)c3ccccc3C2=O)cc1` [ML329, 4-((1,4-dioxo-1,4-dihydronaphthalen-2-yl)amino)benzenesulfonamide], in data set [1], the “Effect on MITF mRNA and target gene mRNA expression” value is “suppresses MITF and its transcriptional activity”. Further, the “Sensitivity of melanoma cell lines (cell viability)” value in data set [2] (A375, SKMEL2, IPC298 and SK30) is on record as “less sensitive”; in data set [2] (SKMEL5, IST MEL, MALME-3M and 501 MEL), “very sensitive”; in data set [2] (UACC257, C32, COLO800 and MZ2MEL), “sensitive”. For the same compound, the “Cytotoxicity in a large number of melanoma cells” value in data set [2] (CellTiter-Glo, incl. vemurafenib-resistant lines) is given as “variably cytotoxic”. In addition, the “Cytotoxicity in non-melanoma cells or melanoma cells lacking MITF” value in the data set with non-melanoma cells is recorded as “not cytotoxic”. In the data set on MITF protein, the “Effect on MITF protein” value is “suppresses MITF protein”.
